Laboratory results: patent US20260001883A1, “5H-PYRROLO[2,3-D]PYRIMIDIN-6(7H)-ONE AND CRYSTAL OF SALT THEREOF” (priority 2022, published 2026)
Where a name gives a salt, the structure may show the parent alone.

Experiments:
Format in all cases: physicochemical
[1] = Solid state stability test (preservation stability, 70° C./75% RH, 2 weeks); conditions: for Appearance change / Total amount of analogous substances (%) 70° C./75% RH (closed system) / Total amount of analogous substances (%) 70° C./75% RH (open system) / amount of analogous substances after preservation (in words) / Powder X-ray diffraction pattern (change after preservation): after 2 weeks at 70° C./75% RH; for Total amount of analogous substances (%) 70° C./75% RH (closed system) / Total amount of analogous substances (%) 70° C./75% RH (open system) / Total amount of analogous substances (%) Initial value: HPLC; for Total amount of analogous substances (%) Initial value: before preservation, UV 220 nm
Procedure: The preservation stability of each of the type I crystal, type II crystal, and type III crystal of the free base of Compound (I), which were produced according to the methods described in Examples 1, 2 and 3 above, respectively, was tested under the following conditions. • Preservation conditions: 70° C./75% RH (open system and closed system) • Measuring point: 2 weeks • Preserved amount: about 50 mg • Preservation container: brown glass bottle
The powder X-ray diffraction of the sample after preservation was measured according to the aforementioned method. A change in the amount of analogous substances (the amount of substances detected other than Compound (I)) was measured by weighing out about 1 mg of the sample, dissolving it in about 5 mL of a water/acetonitrile mixed solution (1:1), accurately measuring 5 μL of this solution, and analyzing it by HPLC using the following method. • Column: InertSustain C18, 4.6×150 mm, 3 μm • Column temperature: 40° C. • Column flow rate: 1.0 mL/min • Mobile phase: A—10 mM phosphate buffer (pH 5.5)/acetonitrile (9:1); B—acetonitrile • Detection UV: 220 nm • Gradient: […]
(§1) The crystal of the hydrochloride of Compound (I), the crystal of the maleate of Compound (I), the crystal of ½ malate of Compound (I), and the crystal of the acetate of Compound (I),which were produced according to the methods described in Example 4, Example 5, Comparative Example 1, and Comparative Example 2, were tested in terms of preservation stability under the conditions of Test Example 1.

[2] = Dynamic moisture adsorption/desorption test; conditions: 25° C., humidity 5% RH to 95% RH and back to 5% RH
Procedure: For the test, a VTI-SA+ (TA Instruments) was used. About 10 mg of each of a free base type I crystal, a free base type II crystal, and a […] was weighed, and was placed in a pan. While confirming that the weight fluctuation was within 0.0100% in 5 minutes, the temperature was raised up to 60° C. at 1 degree per minute. If the weight fluctuated, the temperature was maintained for a maximum of 5 hours before proceeding to the next step. Thereafter, the temperature was lowered to 25° C., and the humidity was raised from 5% RH to 95% RH, and was then lowered to 5% RH. At that time, the humidity was changed by 5% RH while confirming that the weight fluctuation was within 0.00100% in 5 minutes. If the weight fluctuated, the humidity was maintained for a maximum of 2 hours before proceeding to the next step.
as §1, with “2.” for “1.”

[3] = Heat stability test (powder X-ray diffraction under heating to 210° C.); conditions: heating from 25° C. to 210° C.
Procedure: Using the free base type I crystal, the free base type II crystal, and the free base type III crystal, which were produced according to the methods described in Examples 1, 2 and 3 above, a heat stability test was carried out.
Powder X-ray diffraction measurement was carried out at 25° C., and the temperature was raised to 50° C. over 30 minutes, after which powder X-ray diffraction measurement was carried out. Thereafter, the temperature was further raised to 210° C. at 10° C./10 minutes, and powder X-ray diffraction measurement was then carried out. After that, the temperature was lowered to 25° C. over 30 minutes, and powder X-ray diffraction measurement was then carried out.

[4] = listed as crystal of the acetate of Compound (I)
[5] = listed as crystal of the maleate of Compound (I)
[6] = listed as crystal of the hydrochloride of Compound (I)
[7] = listed as free base type III crystal
[8] = listed as crystal of the ½ malate of Compound (I)
[9] = listed as free base type II crystal

SMILES | Appearance change [1] | Total amount of analogous substances (%) 70° C./75% RH (closed system) [1] | Total amount of analogous substances (%) 70° C./75% RH (open system) [1] | Total amount of analogous substances (%) Initial value [1] | Powder X-ray diffraction pattern (change after preservation) [1] | also measured
CC(C)(C)NCCNc1ccc(-c2nnc(C(F)(F)F)o2)nc1C1CCN(c2ncnc3c2C(C)(C)C(=O)N3)CC1 [Crystal of acetate, 4-(4-(3-((2-(tert-butylamino)ethyl)amino)-6-(5-(trifluoromethyl)-1,3,4-oxadiazol-2-yl)pyridin-2-yl)piperidin-1-yl)-5,5-dimethyl-5H-pyrrolo[2,3-d]pyrimidin-6(7H)-one] | No significant | 0.3% | 1.1% | 0.3% | – | Appearance change [1, 4]: no change in appearance; amount of analogous substances after preservation (in words) [1, 4]: large amounts of analogous substances
CC(C)(C)NCCNc1ccc(-c2nnc(C(F)(F)F)o2)nc1C1CCN(c2ncnc3c2C(C)(C)C(=O)N3)CC1 [Crystal of maleate, 4-(4-(3-((2-(tert-butylamino)ethyl)amino)-6-(5-(trifluoromethyl)-1,3,4-oxadiazol-2-yl)pyridin-2-yl)piperidin-1-yl)-5,5-dimethyl-5H-pyrrolo[2,3-d]pyrimidin-6(7H)-one] | No significant | 0.1% | 0.1% | 0.1% | No significant | Appearance change [1, 5]: no change was observed in appearance; Powder X-ray diffraction pattern (change after preservation) [1, 5]: no changes; amount of analogous substances after preservation (in words) [1, 5]: only small amounts of analogous substances; hygroscopicity (moisture adsorption/desorption isotherm) ([2]; listed as crystal of the maleate): low hygroscopicity
CC(C)(C)NCCNc1ccc(-c2nnc(C(F)(F)F)o2)nc1C1CCN(c2ncnc3c2C(C)(C)C(=O)N3)CC1 [Free body type I crystal, 4-(4-(3-((2-(tert-butylamino)ethyl)amino)-6-(5-(trifluoromethyl)-1,3,4-oxadiazol-2-yl)pyridin-2-yl)piperidin-1-yl)-5,5-dimethyl-5H-pyrrolo[2,3-d]pyrimidin-6(7H)-one] | No significant | 0.5% | 0.5% | 0.6% | No significant | change of crystal form under heating (powder X-ray diffraction) ([3]; listed as free base type 1 crystal): no changes were observed in the crystal form; Powder X-ray diffraction pattern (change after preservation) ([1]; listed as type I crystal): no change was observed; hygroscopicity (moisture adsorption/desorption isotherm) [2]: excellent low hygroscopicity; hygroscopicity (moisture adsorption/desorption isotherm) ([2]; listed as free base type I crystal): low hygroscopicity
CC(C)(C)NCCNc1ccc(-c2nnc(C(F)(F)F)o2)nc1C1CCN(c2ncnc3c2C(C)(C)C(=O)N3)CC1 [Crystal of hydrochloride, 4-(4-(3-((2-(tert-butylamino)ethyl)amino)-6-(5-(trifluoromethyl)-1,3,4-oxadiazol-2-yl)pyridin-2-yl)piperidin-1-yl)-5,5-dimethyl-5H-pyrrolo[2,3-d]pyrimidin-6(7H)-one] | No significant | 0.2% | 0.2% | 0.2% | No significant | Appearance change [1, 6]: no change was observed in appearance; Powder X-ray diffraction pattern (change after preservation) [1, 6]: no changes; amount of analogous substances after preservation (in words) [1, 6]: only small amounts of analogous substances; hygroscopicity (moisture adsorption/desorption isotherm) ([2]; listed as crystal of the hydrochloride): lower hygroscopicity than the crystal of the ½ malate
CC(C)(C)NCCNc1ccc(-c2nnc(C(F)(F)F)o2)nc1C1CCN(c2ncnc3c2C(C)(C)C(=O)N3)CC1 [Frcc body type III crystal, 4-(4-(3-((2-(tert-butylamino)ethyl)amino)-6-(5-(trifluoromethyl)-1,3,4-oxadiazol-2-yl)pyridin-2-yl)piperidin-1-yl)-5,5-dimethyl-5H-pyrrolo[2,3-d]pyrimidin-6(7H)-one] | No significant | 0.7% | 0.8% | 0.5% | No significant | change of crystal form under heating (powder X-ray diffraction) [3, 7]: new peaks appeared; Powder X-ray diffraction pattern (change after preservation) ([1]; listed as type III crystal): no change was observed; hygroscopicity (moisture adsorption/desorption isotherm) [2]: excellent low hygroscopicity; hygroscopicity (moisture adsorption/desorption isotherm) [2, 7]: low hygroscopicity
CC(C)(C)NCCNc1ccc(-c2nnc(C(F)(F)F)o2)nc1C1CCN(c2ncnc3c2C(C)(C)C(=O)N3)CC1 [Crystal of ½ malate, 4-(4-(3-((2-(tert-butylamino)ethyl)amino)-6-(5-(trifluoromethyl)-1,3,4-oxadiazol-2-yl)pyridin-2-yl)piperidin-1-yl)-5,5-dimethyl-5H-pyrrolo[2,3-d]pyrimidin-6(7H)-one] | No significant | 5.2% | 64.0% | 0.4% | – | Appearance change [1, 8]: no change in appearance; amount of analogous substances after preservation (in words) [1, 8]: large amounts of analogous substances
CC(C)(C)NCCNc1ccc(-c2nnc(C(F)(F)F)o2)nc1C1CCN(c2ncnc3c2C(C)(C)C(=O)N3)CC1 [Free body type II crystal, 4-(4-(3-((2-(tert-butylamino)ethyl)amino)-6-(5-(trifluoromethyl)-1,3,4-oxadiazol-2-yl)pyridin-2-yl)piperidin-1-yl)-5,5-dimethyl-5H-pyrrolo[2,3-d]pyrimidin-6(7H)-one] | No significant | 0.5% | 0.6% | 0.5% | No significant | change of crystal form under heating (powder X-ray diffraction) [3, 9]: new peaks appeared; Powder X-ray diffraction pattern (change after preservation) ([1]; listed as type II crystal): no change was observed; hygroscopicity (moisture adsorption/desorption isotherm) [2, 9]: low hygroscopicity
